Holding throughout (assay): biochemical
Common to all, as to assay type: binding

The target in assay [1] is T1, panel of 442 kinases (Homo sapiens, UniProt Q32MK0).
T1 construct: purchased Ambit Biosciences (scanMAXX KINOMEscan)
T1 sequence (Q32MK0 1-819): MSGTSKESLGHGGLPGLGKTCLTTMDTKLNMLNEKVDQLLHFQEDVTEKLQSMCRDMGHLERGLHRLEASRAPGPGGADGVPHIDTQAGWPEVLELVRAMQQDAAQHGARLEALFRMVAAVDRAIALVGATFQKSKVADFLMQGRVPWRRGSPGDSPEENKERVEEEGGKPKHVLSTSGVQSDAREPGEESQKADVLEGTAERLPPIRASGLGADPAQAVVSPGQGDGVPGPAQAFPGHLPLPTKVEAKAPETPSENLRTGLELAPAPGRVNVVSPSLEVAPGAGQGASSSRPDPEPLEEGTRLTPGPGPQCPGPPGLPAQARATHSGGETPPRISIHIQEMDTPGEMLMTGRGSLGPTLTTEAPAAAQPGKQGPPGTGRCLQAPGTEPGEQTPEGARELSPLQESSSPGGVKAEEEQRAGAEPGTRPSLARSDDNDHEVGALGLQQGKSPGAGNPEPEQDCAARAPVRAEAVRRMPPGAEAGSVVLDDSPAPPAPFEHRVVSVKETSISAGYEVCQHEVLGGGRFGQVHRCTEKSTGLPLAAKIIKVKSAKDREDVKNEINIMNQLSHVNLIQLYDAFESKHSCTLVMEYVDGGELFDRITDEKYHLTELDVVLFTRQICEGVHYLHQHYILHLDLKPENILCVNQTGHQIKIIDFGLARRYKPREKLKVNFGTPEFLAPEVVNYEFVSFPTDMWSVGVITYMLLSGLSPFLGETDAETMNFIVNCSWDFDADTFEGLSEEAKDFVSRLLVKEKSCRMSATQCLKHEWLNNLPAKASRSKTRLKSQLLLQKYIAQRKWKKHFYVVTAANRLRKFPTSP
The conditions noted are these: kinase MLCK; for remaining activity at 1 µM: read-out: % of control at 1 µM.

The target of assay [2] is T2, panel of 442 kinases (Homo sapiens, UniProt Q09013).
T2 construct: purchased Ambit Biosciences (scanMAXX KINOMEscan)
T2 sequence (Q09013 1-629): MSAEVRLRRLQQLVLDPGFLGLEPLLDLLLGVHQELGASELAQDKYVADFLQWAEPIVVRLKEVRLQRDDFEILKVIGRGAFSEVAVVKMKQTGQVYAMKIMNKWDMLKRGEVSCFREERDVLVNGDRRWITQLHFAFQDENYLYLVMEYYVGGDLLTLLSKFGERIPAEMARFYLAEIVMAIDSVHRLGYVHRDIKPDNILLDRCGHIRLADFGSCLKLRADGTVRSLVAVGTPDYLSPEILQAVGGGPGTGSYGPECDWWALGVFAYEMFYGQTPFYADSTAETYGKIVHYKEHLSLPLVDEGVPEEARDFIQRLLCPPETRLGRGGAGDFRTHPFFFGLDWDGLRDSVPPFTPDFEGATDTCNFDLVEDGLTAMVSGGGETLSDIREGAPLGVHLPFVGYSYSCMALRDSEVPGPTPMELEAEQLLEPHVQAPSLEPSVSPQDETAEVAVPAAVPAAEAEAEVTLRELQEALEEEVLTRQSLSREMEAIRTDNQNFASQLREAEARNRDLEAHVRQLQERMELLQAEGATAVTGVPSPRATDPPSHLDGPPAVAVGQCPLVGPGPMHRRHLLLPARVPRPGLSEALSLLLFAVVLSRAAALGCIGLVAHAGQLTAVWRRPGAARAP
Particulars: DMPK; for remaining activity at 1 µM: read-out: % of control at 1 µM.

Assay [3] deals with T3, panel of 442 kinases (Homo sapiens, UniProt P29597).
T3 construct: purchased Ambit Biosciences (scanMAXX KINOMEscan)

For assay [4], the target named is T4, panel of 442 kinases (Homo sapiens, UniProt O00444).
T4 construct: purchased Ambit Biosciences (scanMAXX KINOMEscan)
T4 sequence (O00444 1-970): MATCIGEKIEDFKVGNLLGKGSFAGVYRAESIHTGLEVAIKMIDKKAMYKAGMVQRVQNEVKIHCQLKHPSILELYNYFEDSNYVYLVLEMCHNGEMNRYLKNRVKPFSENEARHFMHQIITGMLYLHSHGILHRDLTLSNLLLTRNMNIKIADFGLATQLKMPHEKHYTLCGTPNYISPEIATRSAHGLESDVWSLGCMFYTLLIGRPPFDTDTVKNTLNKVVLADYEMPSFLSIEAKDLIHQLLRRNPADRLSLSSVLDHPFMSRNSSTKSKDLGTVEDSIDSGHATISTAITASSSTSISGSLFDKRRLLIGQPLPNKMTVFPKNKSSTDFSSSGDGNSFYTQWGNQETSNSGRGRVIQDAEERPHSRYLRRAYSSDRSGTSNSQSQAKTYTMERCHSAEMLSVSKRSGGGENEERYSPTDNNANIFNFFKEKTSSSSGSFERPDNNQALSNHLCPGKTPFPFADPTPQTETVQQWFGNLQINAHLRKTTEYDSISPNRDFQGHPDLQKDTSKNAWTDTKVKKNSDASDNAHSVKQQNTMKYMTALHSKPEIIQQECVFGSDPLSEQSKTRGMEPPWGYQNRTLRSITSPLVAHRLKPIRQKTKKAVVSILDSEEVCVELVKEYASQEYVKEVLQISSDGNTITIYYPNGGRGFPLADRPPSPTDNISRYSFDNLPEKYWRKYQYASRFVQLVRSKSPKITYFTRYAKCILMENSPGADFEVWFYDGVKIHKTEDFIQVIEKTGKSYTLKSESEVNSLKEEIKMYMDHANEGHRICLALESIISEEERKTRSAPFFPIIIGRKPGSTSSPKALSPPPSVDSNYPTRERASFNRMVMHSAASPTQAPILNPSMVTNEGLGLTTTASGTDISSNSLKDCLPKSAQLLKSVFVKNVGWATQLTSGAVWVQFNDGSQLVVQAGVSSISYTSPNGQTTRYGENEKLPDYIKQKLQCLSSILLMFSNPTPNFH
The conditions noted are these: kinase PLK4; for remaining activity at 1 µM: read-out: PLK4 (% of control at 1 µM).

In assay [5] the target is T5, panel of 442 kinases (Homo sapiens, UniProt Q8IY84).
T5 construct: purchased Ambit Biosciences (scanMAXX KINOMEscan)
Particulars: kinase NIM1; for remaining activity at 1 µM: read-out: % of control at 1 µM.

Assay [6] addresses T6, panel of 442 kinases (Homo sapiens, UniProt O94921).
T6 construct: purchased Ambit Biosciences (scanMAXX KINOMEscan)
Particulars: kinase PFTK1; for remaining activity at 1 µM: read-out: % of control at 1 µM.

The mark [7] stands for this setting: 10 µM, read-out: % of control at 10 µM.
Setting [8] is: kinase TYK2(JH1domain-catalytic), read-out: TYK2(JH1domain-catalytic) (% of control at 1 µM).
[9] abbreviates: kinase TYK2(JH2domain-pseudokinase), read-out: TYK2(JH2domain-pseudokinase) (% of control at 1 µM).

Results on four compounds are retold here after article PMC5564600 (Oncotarget, 2017).

Each structure is given as a SMILES string. Where two headings read alike, the source gives them in different places.

T6 sequence (O94921 whole entry): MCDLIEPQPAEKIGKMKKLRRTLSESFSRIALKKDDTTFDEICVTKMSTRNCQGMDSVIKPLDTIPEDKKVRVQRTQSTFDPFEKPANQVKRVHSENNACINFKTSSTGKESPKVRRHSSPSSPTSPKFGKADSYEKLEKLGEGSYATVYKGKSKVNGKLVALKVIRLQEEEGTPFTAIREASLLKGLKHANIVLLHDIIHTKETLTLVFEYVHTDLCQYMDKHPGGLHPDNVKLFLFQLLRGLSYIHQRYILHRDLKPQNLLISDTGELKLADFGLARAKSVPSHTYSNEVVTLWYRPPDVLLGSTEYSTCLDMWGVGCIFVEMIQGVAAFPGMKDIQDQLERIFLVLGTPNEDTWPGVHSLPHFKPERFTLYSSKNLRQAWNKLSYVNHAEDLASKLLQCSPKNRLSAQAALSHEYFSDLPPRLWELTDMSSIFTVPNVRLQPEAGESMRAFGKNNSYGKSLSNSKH
T3 sequence (P29597 whole entry): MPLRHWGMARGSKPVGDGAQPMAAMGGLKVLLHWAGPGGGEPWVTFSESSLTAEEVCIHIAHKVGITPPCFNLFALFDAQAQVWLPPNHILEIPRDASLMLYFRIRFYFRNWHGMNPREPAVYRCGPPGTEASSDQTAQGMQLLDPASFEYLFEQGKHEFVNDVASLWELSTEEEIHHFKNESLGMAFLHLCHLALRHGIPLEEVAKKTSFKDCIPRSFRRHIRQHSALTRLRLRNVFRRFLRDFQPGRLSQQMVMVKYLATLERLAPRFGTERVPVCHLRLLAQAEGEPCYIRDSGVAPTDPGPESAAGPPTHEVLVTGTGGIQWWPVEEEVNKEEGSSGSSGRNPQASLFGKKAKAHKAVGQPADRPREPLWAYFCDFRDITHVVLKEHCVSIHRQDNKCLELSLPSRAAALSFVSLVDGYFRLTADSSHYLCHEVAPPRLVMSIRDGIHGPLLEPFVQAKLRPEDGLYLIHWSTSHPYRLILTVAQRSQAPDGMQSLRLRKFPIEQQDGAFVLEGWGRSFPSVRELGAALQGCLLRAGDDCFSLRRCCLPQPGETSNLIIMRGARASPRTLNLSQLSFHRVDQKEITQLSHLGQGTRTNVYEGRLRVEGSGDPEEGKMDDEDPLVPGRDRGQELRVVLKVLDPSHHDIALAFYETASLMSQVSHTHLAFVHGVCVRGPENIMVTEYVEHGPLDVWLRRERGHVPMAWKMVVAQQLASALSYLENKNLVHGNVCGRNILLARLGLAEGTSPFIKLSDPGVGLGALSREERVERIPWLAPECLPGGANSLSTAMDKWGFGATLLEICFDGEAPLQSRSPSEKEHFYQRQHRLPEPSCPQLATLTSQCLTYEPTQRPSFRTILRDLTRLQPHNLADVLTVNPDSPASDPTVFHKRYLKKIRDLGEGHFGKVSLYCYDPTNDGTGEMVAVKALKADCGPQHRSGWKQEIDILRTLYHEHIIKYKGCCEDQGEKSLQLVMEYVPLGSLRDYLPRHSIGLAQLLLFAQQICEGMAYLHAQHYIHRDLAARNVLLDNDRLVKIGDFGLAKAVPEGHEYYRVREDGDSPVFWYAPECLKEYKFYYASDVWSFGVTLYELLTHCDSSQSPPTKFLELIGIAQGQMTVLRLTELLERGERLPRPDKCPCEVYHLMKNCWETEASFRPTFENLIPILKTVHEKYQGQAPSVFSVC
T5 sequence (Q8IY84 whole entry): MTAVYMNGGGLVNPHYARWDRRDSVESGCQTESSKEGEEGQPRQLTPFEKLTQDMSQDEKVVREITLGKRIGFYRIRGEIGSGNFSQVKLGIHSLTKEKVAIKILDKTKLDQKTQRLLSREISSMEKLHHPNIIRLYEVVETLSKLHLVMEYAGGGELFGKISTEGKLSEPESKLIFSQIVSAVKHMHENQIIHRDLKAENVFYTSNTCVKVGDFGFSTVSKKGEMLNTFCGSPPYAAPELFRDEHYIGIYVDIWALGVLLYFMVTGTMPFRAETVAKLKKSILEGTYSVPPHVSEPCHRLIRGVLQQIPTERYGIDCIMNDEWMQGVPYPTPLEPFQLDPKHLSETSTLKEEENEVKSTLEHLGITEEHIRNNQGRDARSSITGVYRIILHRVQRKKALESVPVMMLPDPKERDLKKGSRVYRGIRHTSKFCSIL

`Nc1cc(C(F)(F)F)c(-c2cc(N3CCOCC3)nc(N3CCOCC3)n2)cn1` [Buparlisib]: the remaining activity at 1 µM at panel of 442 kinases [1] turned out to be 100%; on panel of 442 kinases [2] it was 79%; at panel of 442 kinases [3] (setting [8]), 100%; on panel of 442 kinases [3] (setting [9]), 32%; on panel of 442 kinases [4], 93%; at panel of 442 kinases [5], 89%. For the same compound, on panel of 442 kinases [6], the remaining activity at 1 µM turned out to be 100%. The remaining activity at 10 µM on panel of 442 kinases [1] (setting [7]) is 100%; at panel of 442 kinases [2] (setting [7]), 83%; at panel of 442 kinases [3] (kinase TYK2(JH1domain-catalytic), read-out: TYK2(JH1domain-catalytic) (% of control at 10 µM)) it was 100%; at panel of 442 kinases [3] (kinase TYK2(JH2domain-pseudokinase), read-out: TYK2(JH2domain-pseudokinase) (% of control at 10 µM)) it was 22%; at panel of 442 kinases [4] (10 µM, read-out: PLK4 (% of control at 10 µM)) it was 87%; on panel of 442 kinases [5] (setting [7]), 86%. In addition, the remaining activity at 10 µM at panel of 442 kinases [6] (setting [7]) is 97%.

On to `Cn1c(=O)n(-c2ccc(C(C)(C)C#N)cc2)c2c3cc(-c4cnc5ccccc5c4)ccc3ncc21` [Dactolisib, 2-methyl-2-[4-(3-methyl-2-oxo-8-quinolin-3-yl-2,3-dihydroimidazo[4,5-c]quinolin-1-yl)-phenyl] propionitrile], for which the remaining activity at 1 µM at panel of 442 kinases [1] was 80%; at panel of 442 kinases [2], 88%; at panel of 442 kinases [3] (setting [8]) it was 26%; on panel of 442 kinases [3] (setting [9]) it was 65%; on panel of 442 kinases [4], 94%; on panel of 442 kinases [5], 100%. In addition, on panel of 442 kinases [6], the remaining activity at 1 µM was 98%.

For `FC(F)c1nc2ccccc2n1-c1nc(N2CCOCC2)nc(N2CCOCC2)n1` [ZSTK474, 2-(difluoromethyl)-1-[4,6-di(4-morpholinyl)-1,3,5-triazin-2-yl]-1H-benzimidazole], the remaining activity at 1 µM is 92% at panel of 442 kinases [1]; 100% on panel of 442 kinases [2]; 93% at panel of 442 kinases [3] (setting [8]); 97% at panel of 442 kinases [3] (setting [9]); 84% on panel of 442 kinases [4]; 100% at panel of 442 kinases [5]. Besides, the remaining activity at 1 µM on panel of 442 kinases [6] amounted to 100%.

For `COc1ncc(-c2ccc3nccc(-c4ccnnc4)c3c2)cc1NS(=O)(=O)c1ccc(F)cc1F` [Omipalisib], the remaining activity at 1 µM on panel of 442 kinases [1] worked out at 100%; at panel of 442 kinases [2], 100%; at panel of 442 kinases [3] (setting [8]), 100%; on panel of 442 kinases [3] (setting [9]), 78%; on panel of 442 kinases [4], 61%; on panel of 442 kinases [5], 100%. Further, the remaining activity at 1 µM at panel of 442 kinases [6] was 97%.
